Experiments:
Test in all cases: normalised viability (% of control), CellTiter-Blue; higher = more viable cells (about 100 = DMSO control)
CAL-148 [1] = settings: 10 nM; incubation time: 72 h
In short: (§1)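 384-well plates were pre-loaded with compound in 5 µl medium before 20 µl of breast cancer cell suspension was seeded. Following 72 h incubation, 2.5 µl CellTiter-Blue reagent was added for 2 h at 37 °C. Fluorescence was read at 560/590 nm and plates were normalised to vehicle (100) and a positive kill control (0), checked by Z'-factor. Normalised viability is reported at a single listed concentration of the series.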

HCC1143 [2] = settings: 100 nM; incubation time: 72 h
In short: as §1

HCC1937 [3] = settings: 100 nM; incubation time: 72 h
In short: as §1

CAL-51 [4] = settings: 10 nM; incubation time: 72 h
In short: as §1

HCC1599 [5] = settings: 100 nM; incubation time: 72 h
In short: as §1

DU-4475 [6] = settings: 10 nM; incubation time: 72 h
In short: as §1

MFM-223 [7] = settings: 100 nM; incubation time: 72 h
In short: as §1

MDA-MB-436 [8] = settings: 100 nM; incubation time: 72 h
In short: as §1

BT-549 [9] = settings: 100 nM; incubation time: 72 h
In short: as §1

MDA-MB-231 = settings: 100 nM; incubation time: 72 h
In short: as §1

CAL-148 [10] = settings: incubation time: 72 h
In short: as §1

HCC1143 [11] = settings: incubation time: 72 h
In short: as §1

HCC1937 [12] = settings: incubation time: 72 h
In short: as §1

CAL-120 = settings: incubation time: 72 h
In short: as §1

CAL-51 [13] = settings: incubation time: 72 h
In short: as §1

SK-BR-3 = settings: incubation time: 72 h
In short: as §1

HCC1599 [14] = settings: incubation time: 72 h
In short: as §1

DU-4475 [15] = settings: incubation time: 72 h
In short: as §1

HDQ-P1 = settings: incubation time: 72 h
In short: as §1

MFM-223 [16] = settings: incubation time: 72 h
In short: as §1

BT-474 = settings: incubation time: 72 h
In short: as §1

MDA-MB-453 = settings: incubation time: 72 h
In short: as §1

MDA-MB-436 [17] = settings: incubation time: 72 h
In short: as §1

MDA-MB-468 = settings: incubation time: 72 h
In short: as §1

BT-549 [18] = settings: incubation time: 72 h
In short: as §1

Hs578T = settings: incubation time: 72 h
In short: as §1

CAL-85-1 = settings: incubation time: 72 h
In short: as §1

CN1CCN(c2ccc3nc(-c4c(N)c5c(F)cccc5[nH]c4=O)[nH]c3c2)CC1 [Dovitinib]
Settings | normalised viability [%]
BT-549 [9] | 90.5
CAL-51 [4] | 111
CAL-148 [1] | 94.7
DU-4475 [6] | 99.8
HCC1143 [2] | 84.5
HCC1599 [5] | 88.2
HCC1937 [3] | 95.6
MDA-MB-231 | 80.2
MDA-MB-436 [8] | 99.7
MFM-223 [7] | 80.2

normalised viability [%]
Settings | 3 nM | 10 nM | 30 nM | 100 nM | 1000 nM | 10000 nM
BT-474 | – | 111 | – | – | 97.4 | 121
BT-549 [18] | – | 83 | – | – | 97.1 | 89
CAL-51 [13] | 119 | – | 113 | 107 | – | –
CAL-85-1 | 85.3 | – | 86.4 | 97.5 | – | –
CAL-120 | – | 88.3 | – | – | 91.8 | 83.7
CAL-148 [10] | 91.6 | – | 95.5 | 89.6 | – | –
DU-4475 [15] | 94.3 | – | 85.5 | 89.4 | – | –
HCC1143 [11] | – | 86.9 | – | – | 87.9 | 69.8
HCC1599 [14] | – | 98 | – | – | 98.8 | 89
HCC1937 [12] | – | 116 | – | – | 80.7 | 76.9
HDQ-P1 | 91 | – | 93.3 | 88.3 | – | –
Hs578T | – | 106 | – | – | 99.3 | 96
MDA-MB-436 [17] | – | 86.7 | – | – | 97 | 81.1
MDA-MB-453 | 114 | – | 82.3 | 84 | – | –
MDA-MB-468 | – | 104 | – | – | 90.6 | 72.6
MFM-223 [16] | – | 80.5 | – | – | 56.4 | 61
SK-BR-3 | – | 84.8 | – | – | 94.8 | 72.9

O=c1[nH]c(=O)n([C@H]2C[C@H](O)[C@@H](CO)O2)cc1F [Floxuridine]
Settings | normalised viability [%]
BT-549 [9] | 93.4
CAL-51 [4] | 91.8
CAL-148 [1] | 99.8
DU-4475 [6] | 114
HCC1143 [2] | 101
HCC1599 [5] | 97.2
HCC1937 [3] | 84.5
MDA-MB-231 | 97.4
MDA-MB-436 [8] | 72.6
MFM-223 [7] | 92.6

normalised viability [%]
Settings | 3 nM | 10 nM | 30 nM | 100 nM | 1000 nM | 10000 nM
BT-474 | – | 108 | – | – | 103 | 94.8
BT-549 [18] | – | 96.5 | – | – | 67.1 | 44.8
CAL-51 [13] | 108 | – | 64.4 | 46.6 | – | –
CAL-85-1 | 90.4 | – | 68.8 | 62.3 | – | –
CAL-120 | – | 94.4 | – | – | 16.8 | 21.1
CAL-148 [10] | 97.6 | – | 54.4 | 52.8 | – | –
DU-4475 [15] | 107 | – | 107 | 69.5 | – | –
HCC1143 [11] | – | 97.5 | – | – | 91.1 | 61.6
HCC1599 [14] | – | 86.9 | – | – | 91.8 | 81.9
HCC1937 [12] | – | 78.3 | – | – | 76 | 42.1
HDQ-P1 | 111 | – | 94.8 | 80.8 | – | –
Hs578T | – | 127 | – | – | 58.9 | 38.9
MDA-MB-436 [17] | – | 88.9 | – | – | 62.5 | 44.2
MDA-MB-453 | 109 | – | 79 | 85.3 | – | –
MDA-MB-468 | – | 95.5 | – | – | 43.7 | 30.3
MFM-223 [16] | – | 97.1 | – | – | 93.4 | 55.1
SK-BR-3 | – | 94.5 | – | – | 44.9 | 24

O=c1[nH]cc(F)c(=O)[nH]1 [Fluorouracil]
Settings | normalised viability [%]
BT-549 [9] | 107
CAL-51 [4] | 105
CAL-148 [1] | 108
DU-4475 [6] | 97
HCC1143 [2] | 97.7
HCC1599 [5] | 102
HCC1937 [3] | 104
MDA-MB-231 | 106
MDA-MB-436 [8] | 89.1
MFM-223 [7] | 96.5

normalised viability [%]
Settings | 3 nM | 10 nM | 30 nM | 100 nM | 1000 nM | 10000 nM
BT-474 | – | 108 | – | – | 108 | 94
BT-549 [18] | – | 101 | – | – | 90.3 | 74.2
CAL-51 [13] | 105 | – | 100 | 92.9 | – | –
CAL-85-1 | 105 | – | 101 | 115 | – | –
CAL-120 | – | 114 | – | – | 95.8 | 54.9
CAL-148 [10] | 111 | – | 109 | 103 | – | –
DU-4475 [15] | 120 | – | 103 | 85.6 | – | –
HCC1143 [11] | – | 99.5 | – | – | 91 | 64.9
HCC1599 [14] | – | 102 | – | – | 96.1 | 76.9
HCC1937 [12] | – | 90.6 | – | – | 112 | 75.3
HDQ-P1 | 105 | – | 114 | 99.9 | – | –
Hs578T | – | 111 | – | – | 106 | 55.6
MDA-MB-436 [17] | – | 103 | – | – | 87.8 | 73.5
MDA-MB-453 | 113 | – | 106 | 99.1 | – | –
MDA-MB-468 | – | 99.4 | – | – | 103 | 76
MFM-223 [16] | – | 106 | – | – | 98.5 | 94.3
SK-BR-3 | – | 108 | – | – | 62.4 | 43.1

Reference: the supplement of paper PMC4862054
